Consider 6 compounds from US6224857A, “Pharmaceutical preparations comprised of salts of hyaluronic acid with local anaesthetics” (Fidia, S.p.A., priority 1996, dated 2001).

Counter-ions that a name gives are not always drawn.

In this assay the test system is rabbit cornea. Put plainly: Corneal anaesthesia in rabbit (blinking reflex, Camougis and Tankman method). In kind it is in vivo. The settings on record: rabbit eye. As for the experimental part:
[…] of solution was instilled in the conjunctival sac. The blinking reflex, tested with a bristle, was measured before instillation and then every 5-10 minutes until one hour after treatment. At each test time the degree of anaesthesia was expressed by means of a score of up to 10 given by the number of stimulations before the eye-blink reflex was obtained. The overall anaesthetic effect for each compound was then quantified by the area under curve (AUC) of the degree of anaesthesia over time.

Where [1] appears, read: Table 1, dose 0.125% (as hydrochloride), reference Bupivacaine HCl = 100.
[2] abbreviates: Table 5, dose 0.125%, degree of salification, 500-730 kDa, reference Bupivacaine HCl = 100.

Turning to `CN(C)CCCOc1nn(Cc2ccccc2)c2ccccc12` [Benzydamine HCl, benzydamine hydrochloride], the “Anaesthesia (AUC)” value reads like this: (Table 1, dose 0.125% (as hydrochloride), reference Benzydamine HCl = 100) 100; (Table 6, dose 0.125%, degree of salification, 50-350 kDa, reference Benzydamine HCl = 100) 100.
As to `CCCCN1CCCCC1C(=O)Nc1c(C)cccc1C` (stereo not drawn) [Bupivacaine HCl, bupivacaine hydrochloride], the “Anaesthesia (AUC)” value by setting is: under setting [1], 100; (Table 3, first group (50% Na salts), dose 0.125%, reference Bupivacaine HCl = 100) 100; (Table 3, second group (50% Ca salts), dose 0.125%, reference Bupivacaine HCl = 100) 100; under setting [2], 100.
Consider “stoichiometrically neutral salt of hyaluronic acid with bupivacaine [FID 60.2082]”, for which the “Anaesthesia (AUC)” value was 166 under setting [1] and 100 (Table 2, dose 0.125%, FID 60.20XX (50-350 kDa), reference FID 60.2082 = 100).
Turning to “stoichiometrically neutral salt of hyaluronic acid with bupivacaine [FID 61.2082]”, the “Anaesthesia (AUC)” value by setting is: (Table 2, dose 0.125%, FID 61.20XX (500-730 kDa), reference FID 61.2082 = 100) 100; under setting [2], 314.
In the case of “stoichiometrically neutral salt of hyaluronic acid with bupivacaine [FID 62.2082]”, the “Anaesthesia (AUC)” value (Table 2, dose 0.125%, FID 62.20XX (750-1200 kDa), reference FID 62.2082 = 100) was 100.
Turning to “stoichiometrically neutral salt of hyaluronic acid with lidocaine [FID 60.2070]”, the “Anaesthesia (AUC)” value (Table 1, dose 1% (as hydrochloride), reference Lidocaine HCl = 100) is on record as 167.
